Where “and” joins values, the source holds several entries; their conditions need not be identical. Identical values can stand only once.

In assay [1] the test system is phorboid receptor (PDBu receptor) of murine brain membranous fraction (BMF). Briefly: PDBu binding inhibiting activity (PBIA): inhibition of 3H-PDBu binding to murine brain membranous fraction. On the set-up: species or system mouse. As for the experimental part:
Pooled murine brains from approximately 2 month old mice, NFS strain, were minced with scissors, suspended in 1 mM triethanolamine-HCl, pH 7.4, and disrupted with a polytron P-10 (Brinkman). This and all subsequent steps were performed at 4° C. The homogenate was centrifuged for 10 minutes at 1700xg; the supernate was removed and centrifuged for 60 minutes at 105,000xg. The resulting pellet was suspended in one-fourth of the initial volume of PBS. The suspension was aliquoted into a small volume and stored at -70° C.
The binding of ^3 H-PDBu to BMF or soluble receptors was performed in duplicate in 12×75mm disposable glass tubes (Kimax) both in the absence and presence of 20μg/ml unlabeled PDBu; the binding mixture contained 5ng of ^3 H-PDBu (4×10^4 cpm), 0.2% final concentration of DMSO and BMF (50μg protein) or soluble receptors in a total volume of 0.25 ml binding buffer (BB) consisting of Dulbecco's […] (DMEM) containing bovine serum albumin (BSA lmg/ml) and N,N,-bis-(2-hydroxyethyl)-2-amino-ethane sulfonic acid (BES, 5mM), adjusted to pH 6.8. After incubation for 30 minutes at 23° C. the tubes were chilled, 0.5 ml cold 4% calf serum (Colorado Serum Co., Denver, CO) and 0.7 ml cold polyethylene glycol (PEG 6,000) in 1 mM Tris-HCl, pH 7.4 was added to each tube, the contents vortexed, the tubes allowed to stand for 15 min at 4° C., and centrifuged for 10 min at 1500xg at 4° C. The supernatant solution was carefully aspirated off, the pellet suspended in 2.5 ml of cold 10% PEG in 0.1 M Tris-HCl, pH 7.4, containing 0.5% SDS and 1 mM EDTA). The mixture was transferred to counting vials and 10 ml of Aquassure (NEN) was added to each vial. The vials were vigorously shaken and radioactivity determined using a Beckman beta counter.
The loss of the ability of ^3 H-PDBu to bind to receptors in the presence of ligand was used as the measure of inhibiting activity. PDBu binding inhibition assays were performed as described above, except the test materials were added to the reaction mixture and binding measured as described above.
The PBIA of ligand was equated with that of PDBu by the use of the term ng equivalent calculated from a plot of [^3 H]PDBu bound versus the log molar concentration for several biologically active phorbol esters (2). The curve corresponding to PDBu inhibition of PDBu binding was used by reading the molar concentration corresponding to the percent of control binding of ^3 H]PDBu in the presence of ligand to obtain the units ng PDBu equivalent of ligand.

In assay [2] the test system is arachidonic acid cascade in mink lung cells. Kind of assay: Stimulation of arachidonic acid cascade: release of radioactivity from cells prelabeled with arachidonic acid. In kind it is cell-based. To be noted: cells previously labeled with radioactive arachidonic acid. The source says:
The release of radioactivity into the medium from cells previously labeled with radioactive arachidonic was used as a measure of activation of eicosanoids pathway. […] PBIL from all sources inhibited PDBu-receptor interaction.

As to `CCCCCCCC/C=C\CCCCCCCC(=O)OCC(CO)OC(=O)CCCCCCC/C=C\CCCCCCCC` (centres unmarked) [1,2-Diolein], in assay [1] (concentration 0.8 nM), the “Inhibition (%) of binding of PDBu to its receptor” value (“Inhibition (%) of binding of PDBu” for short) is 20%.

Turning to `CCCCC/C=C\C/C=C\CCCCCCCC(=O)OCC(O)COC(=O)CCCCCCC/C=C\C/C=C\CCCCC` [1,3-Dilinolein], in assay [1] (concentration 0.8 nM), the “Inhibition (%) of binding of PDBu” value is 15%. With `CCCCCCCCCCCCCC(=O)OCC(O)COC(=O)CCCCCCCCCCCCC` [1,3-Dimyritin], the “Inhibition (%) of binding of PDBu” value in assay [1] (concentration 0.4 nM) is 1%. Turning to `CCCCCCCC/C=C\CCCCCCCC(=O)OCC(O)COC(=O)CCCCCCC/C=C\CCCCCCCC` [1,3-Diolein], the “Inhibition (%) of binding of PDBu” value in assay [1] (concentration 0.8 nM) worked out at 11%. On to `CCCCCCCCCCCCCCCC(=O)OCC(O)COC(=O)CCCCCCCCCCCCCCC` [1,3-Dipalmitin], for which, in assay [1] (concentration 0.8 nM), the “Inhibition (%) of binding of PDBu” value is -12%.

Consider `CCCCC/C=C\C/C=C\C/C=C\C/C=C\CCCC(=O)OCC(O)CO` (centres unmarked) [1-Monoarachidonin], for which, in assay [2], the “Stimulation of arachidonic acid cascade (release of radioactivity into the medium)” value (shortened to “Stimulation of arachidonic acid cascade”) is “stimulate the arachidonic acid cascade”. The “Competition with phorbol dibutyrate for its receptor (qualitative)” value (shortened to “Competition with phorbol dibutyrate”) in assay [1] is reported as “compete with phorbol dibutyrate for its receptor”. Also, the “Inhibition (%) of binding of PDBu” value is recorded as 41% in assay [1] (concentration 0.2 nM), 91% in assay [1] (concentration 0.4 nM) and 95% in assay [1] (concentration 0.8 nM). For the molecule `CCCCC/C=C\C/C=C\CCCCCCCC(=O)OC[C@@H](O)CO` [1-Monolinolein], the “Stimulation of arachidonic acid cascade” value in assay [2] (listed as 1-monolinolein) is “stimulate the arachidonic acid cascade”; in assay [2] (listed as monolinolein) it was “activated the arachidonic acid cascade”. The “Competition with phorbol dibutyrate” value in assay [1] is given as “compete with phorbol dibutyrate for its receptor”. Besides, the “Inhibition (%) of binding of PDBu” value in assay [1] (concentration 0.2 nM) was found to be 39%; in assay [1] (concentration 0.4 nM) it was 82%; in assay [1] (concentration 0.8 nM), 94%.

With `CC/C=C\C/C=C\C/C=C\CCCCCCCC(=O)OCC(O)CO` (centres unmarked) [1-Monolinolenin], the “Inhibition (%) of binding of PDBu” value turned out to be 27% in assay [1] (concentration 0.2 nM), 74% in assay [1] (concentration 0.4 nM) and 94% in assay [1] (concentration 0.8 nM). Regarding `CCCCCCCCCCCCCC(=O)OCC(O)CO` (centres unmarked) [1-Monomyristin], in assay [1] (concentration 0.4 nM), the “Inhibition (%) of binding of PDBu” value stood at 0%. Turning to `CCCCCCCC/C=C\CCCCCCCC(=O)OCC(O)CO` (centres unmarked) [1-Monoolein], the “Inhibition (%) of binding of PDBu” value in assay [1] (concentration 0.4 nM) is listed as 21%; in assay [1] (concentration 0.8 nM), 63%. Consider `CCCCCCCCCCCCCCCC(=O)OCC(O)CO` (centres unmarked) [1-Monopalmitin], for which the “Inhibition (%) of binding of PDBu” value in assay [1] (concentration 0.8 nM, 0.0008 µM) was -6% and -15%. Turning to `CCCCCC/C=C\CCCCCCCC(=O)OCC(O)CO` (centres unmarked) [1-Monopalmitolein], the “Stimulation of arachidonic acid cascade” value in assay [2] was “stimulate the arachidonic acid cascade”. Moreover, the “Competition with phorbol dibutyrate” value in assay [1] is listed as “compete with phorbol dibutyrate for its receptor”. Moreover, the “Inhibition (%) of binding of PDBu” value in assay [1] (concentration 0.4 nM) stood at 36%; in assay [1] (concentration 0.8 nM), 82%.

As to `OCC(O)CO` [Glycerol], the “Inhibition (%) of binding of PDBu” value in assay [1] (concentration 0.4 nM) came to 0%. Regarding `CCCCC/C=C\C/C=C\CCCCCCCC(=O)O` [Linoleic acid-Na], the results for the “Inhibition (%) of binding of PDBu” value in assay [1] (concentration 0.4 nM) and in assay [1] (concentration 0.8 nM) were 10% and 15%, respectively. With `CCCCCCCCCCCC(=O)OCC(COC(=O)CCCCCCCCCCC)OC(=O)CCCCCCCCCCC` [Trilaurin], the “Inhibition (%) of binding of PDBu” value in assay [1] (concentration 0.4 nM) amounted to 11%. On to `CCCCC/C=C\C/C=C\CCCCCCCC(=O)OCC(COC(=O)CCCCCCC/C=C\C/C=C\CCCCC)OC(=O)CCCCCCC/C=C\C/C=C\CCCCC` [Trilinolein], for which the “Inhibition (%) of binding of PDBu” value in assay [1] (concentration 0.8 nM) was -1%. In the case of `CCCCCCCCCCCCCC(=O)OCC(COC(=O)CCCCCCCCCCCCC)OC(=O)CCCCCCCCCCCCC` [Trimystrin], in assay [1] (concentration 0.4 nM), the “Inhibition (%) of binding of PDBu” value amounted to 15%. As for `CCCCCCCCCCCCCCCC(=O)OCC(COC(=O)CCCCCCCCCCCCCCC)OC(=O)CCCCCCCCCCCCCCC` [Tripalmitin], the “Inhibition (%) of binding of PDBu” value in assay [1] (concentration 0.4 nM) is reported as -11%; in assay [1] (concentration 0.8 nM), -8%.

The values are drawn from patent US5093045A, “Biologically active lipids binding membrane receptors” (priority 1990, dated 1992).
